Patent EP0908457B1, “3-(1,2-benzisothiazol- and isoxazol-5-Y1)-2,4(1H,3H)-pyrimidinedione or thione and 3-(1,2-benzisothiazol- and isoxazol-5-y1)-4(3H)-pyrimidinone or thione herbicidal agents” (BASF AKTIENGESELLSCHAFT, priority 1997, dated 1999)

Assays:
[1] = test system: Echinochloa oryzoides (Ard.) Fritsch.; experiment: Preemergence weed control under flooded paddy conditions, ECHORC (Watergrass (Calif.)); format: in vivo; details: flooded paddy, rated three to four weeks after treatment; also: meaning of each grade not given here
[2] = test system: Echinochloa oryzoides (Ard.) Fritsch.; experiment: Postemergence weed control under flooded paddy conditions, ECHORC (Watergrass (Calif.)); format: in vivo; details: rated three to four weeks after treatment
[3] = test system: Oryza sativa, (L.) Tebonnet; experiment: Rice tolerance to post-transplant applications under flooded paddy conditions (Example 188), ORYSAT (Rice, Tebonnet); details: rated three to four weeks after treatment
[4] = test system: Sagittaria pygmaea, L.; experiment: Preemergence weed control under flooded paddy conditions, SAGPY (Arrowhead (Pygmaea)); format: in vivo; details: flooded paddy, rated three to four weeks after treatment; also: meaning of each grade not given here
[5] = test system: Cyperus iria; experiment: Preemergence weed control under flooded paddy conditions, CYPIR (Rice Flatsedge); format: in vivo; details: flooded paddy, rated three to four weeks after treatment; also: meaning of each grade not given here
[6] = test system: Cyperus serotinus, Rottb.; experiment: Preemergence weed control under flooded paddy conditions, CYPSE (Flatsedge); format: in vivo; details: rated three to four weeks after treatment; also: meaning of each grade not given here
[7] = test system: Oryza sativa, (L.) Tebonnet; experiment: Rice tolerance to post-transplant applications under flooded paddy conditions (Example 187), ORYSAT (Rice, Tebonnet); details: rated three to four weeks after treatment; also: meaning of each grade not given here
[8] = test system: Cyperus serotinus, Rottb.; experiment: Postemergence weed control under flooded paddy conditions, CYPSE (Flatsedge); format: in vivo; details: rated three to four weeks after treatment
[9] = test system: Monochoria vaginalis, Presl.; experiment: Postemergence weed control under flooded paddy conditions, MOOVA (Monochoria); format: in vivo; details: rated three to four weeks after treatment
[10] = test system: Monochoria vaginalis, Presl.; experiment: Preemergence weed control under flooded paddy conditions, MOOVA (Monochoria); format: in vivo; details: flooded paddy, rated three to four weeks after treatment; also: meaning of each grade not given here
[11] = test system: Cyperus iria; experiment: Postemergence weed control under flooded paddy conditions, CYPIR (Rice Flatsedge); format: in vivo; details: rated three to four weeks after treatment
[12] = test system: Sagittaria pygmaea, L.; experiment: Postemergence weed control under flooded paddy conditions, SAGPY (Arrowhead (Pygmaea)); format: in vivo; details: rated three to four weeks after treatment
[13] = Rate 0.0320 kg/ha, preemergence weeds
[14] = Rate 0.0620 kg/ha, preemergence weeds
[15] = Rate 0.1250 kg/ha, preemergence weeds
[16] = Rate 0.2500 kg/ha, preemergence weeds
[17] = Rate 0.0320 kg/ha, preemergence
[18] = Rate 0.0620 kg/ha, preemergence
[19] = Rate 0.1250 kg/ha, preemergence
[20] = Rate 0.2500 kg/ha, preemergence
[21] = Rate 0.5000 kg/ha, preemergence

## CCOc1cccc(-c2nsc3ccc(-n4c(=O)cc(C(F)(F)F)n(C)c4=O)cc23)c1 [Example 327, 2,4(1H,3H)-Pyrimidinedione, 3-[3-(m-ethoxyphenyl)-1,2-benzisothiazol-5-yl]-1-methyl-6-(trifluoromethyl)-]
[1]; [13]
  herbicidal effect rating, ECHORC: 9.0
[1]; [14]
  herbicidal effect rating, ECHORC: 9.0
[1]; [15]
  herbicidal effect rating, ECHORC: 9.0
[1]; [16]
  herbicidal effect rating, ECHORC: 9.0
[2]; Rate 0.0320 kg/ha
  herbicidal effect rating, ECHORC: 9.0
[2]; Rate 0.0620 kg/ha
  herbicidal effect rating, ECHORC: 7.0
[2]; Rate 0.1250 kg/ha
  herbicidal effect rating, ECHORC: 9.0
[2]; Rate 0.2500 kg/ha
  herbicidal effect rating, ECHORC: 9.0
[3]; Rate 0.0320 kg/ha
  herbicidal effect rating, ORYSAT (rice tolerance): 2.0
[3]; Rate 0.0620 kg/ha
  herbicidal effect rating, ORYSAT (rice tolerance): 3.0
[3]; Rate 0.1250 kg/ha
  herbicidal effect rating, ORYSAT (rice tolerance): 5.0
[3]; Rate 0.2500 kg/ha
  herbicidal effect rating, ORYSAT (rice tolerance): 4.0
[4]; [13]
  herbicidal effect rating, SAGPY: 3.0
[4]; [14]
  herbicidal effect rating, SAGPY: 5.5
[4]; [15]
  herbicidal effect rating, SAGPY: 5.5
[4]; [16]
  herbicidal effect rating, SAGPY: 7.5
[5]; [13]
  herbicidal effect rating, CYPIR: 9.0
[5]; [14]
  herbicidal effect rating, CYPIR: 9.0
[5]; [15]
  herbicidal effect rating, CYPIR: 9.0
[5]; [16]
  herbicidal effect rating, CYPIR: 9.0
[6]; [13]
  herbicidal effect rating, CYPSE: 1.0
[6]; [14]
  herbicidal effect rating, CYPSE: 5.5
[6]; [15]
  herbicidal effect rating, CYPSE: 5.5
[6]; [16]
  herbicidal effect rating, CYPSE: 9.0
[7]; Rate 0.0320 kg/ha
  herbicidal effect rating ORYSAT: 3.0
[7]; Rate 0.0620 kg/ha
  herbicidal effect rating ORYSAT: 2.5
[7]; Rate 0.1250 kg/ha
  herbicidal effect rating ORYSAT: 3.5
[7]; Rate 0.2500 kg/ha
  herbicidal effect rating ORYSAT: 4.0
[8]; Rate 0.0320 kg/ha
  herbicidal effect rating, CYPSE: 0.0
[8]; Rate 0.0620 kg/ha
  herbicidal effect rating, CYPSE: 0.0
[8]; Rate 0.1250 kg/ha
  herbicidal effect rating, CYPSE: 0.0
[8]; Rate 0.2500 kg/ha
  herbicidal effect rating, CYPSE: 2.0
[9]; Rate 0.0320 kg/ha
  herbicidal effect rating, MOOVA: 9.0
[9]; Rate 0.0620 kg/ha
  herbicidal effect rating, MOOVA: 9.0
[9]; Rate 0.1250 kg/ha
  herbicidal effect rating, MOOVA: 9.0
[9]; Rate 0.2500 kg/ha
  herbicidal effect rating, MOOVA: 9.0
[10]; [13]
  herbicidal effect rating, MOOVA: 9.0
[10]; [14]
  herbicidal effect rating, MOOVA: 9.0
[10]; [15]
  herbicidal effect rating, MOOVA: 9.0
[10]; [16]
  herbicidal effect rating, MOOVA: 9.0
[11]; Rate 0.0320 kg/ha
  herbicidal effect rating, CYPIR: 9.0
[11]; Rate 0.0620 kg/ha
  herbicidal effect rating, CYPIR: 9.0
[11]; Rate 0.1250 kg/ha
  herbicidal effect rating, CYPIR: 9.0
[11]; Rate 0.2500 kg/ha
  herbicidal effect rating, CYPIR: 9.0
[12]; Rate 0.0320 kg/ha
  herbicidal effect rating, SAGPY: 0.0
[12]; Rate 0.0620 kg/ha
  herbicidal effect rating, SAGPY: 0.0
[12]; Rate 0.1250 kg/ha
  herbicidal effect rating, SAGPY: 4.0
[12]; Rate 0.2500 kg/ha
  herbicidal effect rating, SAGPY: 4.0

## CC(C)S(=O)(=O)NC(=O)c1nsc2ccc(-n3c(=O)cc(C(F)(F)F)n(C)c3=O)cc12 [Example 362, 1,2-Benzisothiazole-3-carboxamide, 5-[3,6-dihydro-3-methyl-2,6-dioxo-4-(trifluoromethyl)-1(2H)-pyrimidinyl]-N-(isopropylsulfonyl)-]
[1]; [17]
  herbicidal effect rating, ECHORC: 4.0
[1]; [18]
  herbicidal effect rating, ECHORC: 7.0
[1]; [19]
  herbicidal effect rating, ECHORC: 7.0
[1]; [20]
  herbicidal effect rating, ECHORC: 9.0
[1]; [21]
  herbicidal effect rating, ECHORC: 9.0
[2]; Rate 0.0320 kg/ha
  herbicidal effect rating, ECHORC: 0.0
[2]; Rate 0.0620 kg/ha
  herbicidal effect rating, ECHORC: 2.0
[2]; Rate 0.1250 kg/ha
  herbicidal effect rating, ECHORC: 7.0
[2]; Rate 0.2500 kg/ha
  herbicidal effect rating, ECHORC: 9.0
[3]; Rate 0.0320 kg/ha
  herbicidal effect rating, ORYSAT (rice tolerance): 3.0
[3]; Rate 0.0620 kg/ha
  herbicidal effect rating, ORYSAT (rice tolerance): 3.0
[3]; Rate 0.1250 kg/ha
  herbicidal effect rating, ORYSAT (rice tolerance): 3.0
[3]; Rate 0.2500 kg/ha
  herbicidal effect rating, ORYSAT (rice tolerance): 6.0
[4]; [17]
  herbicidal effect rating, SAGPY: 9.0
[4]; [18]
  herbicidal effect rating, SAGPY: 9.0
[4]; [19]
  herbicidal effect rating, SAGPY: 9.0
[4]; [20]
  herbicidal effect rating, SAGPY: 9.0
[4]; [21]
  herbicidal effect rating, SAGPY: 9.0
[5]; [17]
  herbicidal effect rating, CYPIR: 3.0
[5]; [18]
  herbicidal effect rating, CYPIR: 5.0
[5]; [19]
  herbicidal effect rating, CYPIR: 5.0
[5]; [20]
  herbicidal effect rating, CYPIR: 7.0
[5]; [21]
  herbicidal effect rating, CYPIR: 9.0
[6]; [17]
  herbicidal effect rating, CYPSE: 6.0
[6]; [18]
  herbicidal effect rating, CYPSE: 9.0
[6]; [19]
  herbicidal effect rating, CYPSE: 9.0
[6]; [20]
  herbicidal effect rating, CYPSE: 9.0
[6]; [21]
  herbicidal effect rating, CYPSE: 9.0
[7]; Rate 0.0320 kg/ha
  herbicidal effect rating ORYSAT: 4.0
[7]; Rate 0.0620 kg/ha
  herbicidal effect rating ORYSAT: 4.0
[7]; Rate 0.1250 kg/ha
  herbicidal effect rating ORYSAT: 4.0
[7]; Rate 0.2500 kg/ha
  herbicidal effect rating ORYSAT: 6.0
[7]; Rate 0.5000 kg/ha
  herbicidal effect rating ORYSAT: 8.0
[8]; Rate 0.0320 kg/ha
  herbicidal effect rating, CYPSE: 0.0
[8]; Rate 0.0620 kg/ha
  herbicidal effect rating, CYPSE: 9.0
[8]; Rate 0.1250 kg/ha
  herbicidal effect rating, CYPSE: 9.0
[8]; Rate 0.2500 kg/ha
  herbicidal effect rating, CYPSE: 9.0
[9]; Rate 0.0320 kg/ha
  herbicidal effect rating, MOOVA: 9.0
[9]; Rate 0.0620 kg/ha
  herbicidal effect rating, MOOVA: 9.0
[9]; Rate 0.1250 kg/ha
  herbicidal effect rating, MOOVA: 9.0
[9]; Rate 0.2500 kg/ha
  herbicidal effect rating, MOOVA: 9.0
[10]; [17]
  herbicidal effect rating, MOOVA: 9.0
[10]; [18]
  herbicidal effect rating, MOOVA: 9.0
[10]; [19]
  herbicidal effect rating, MOOVA: 9.0
[10]; [20]
  herbicidal effect rating, MOOVA: 9.0
[10]; [21]
  herbicidal effect rating, MOOVA: 9.0
[11]; Rate 0.0320 kg/ha
  herbicidal effect rating, CYPIR: 4.0
[11]; Rate 0.0620 kg/ha
  herbicidal effect rating, CYPIR: 7.0
[11]; Rate 0.1250 kg/ha
  herbicidal effect rating, CYPIR: 8.0
[11]; Rate 0.2500 kg/ha
  herbicidal effect rating, CYPIR: 4.0
[12]; Rate 0.0320 kg/ha
  herbicidal effect rating, SAGPY: 0.0
[12]; Rate 0.0620 kg/ha
  herbicidal effect rating, SAGPY: 0.0
[12]; Rate 0.1250 kg/ha
  herbicidal effect rating, SAGPY: 4.0
[12]; Rate 0.2500 kg/ha
  herbicidal effect rating, SAGPY: 8.0
